From ChEMBL document CHEMBL3046894, “Synthesis and Herbicidal Activity of Pyrimidinyl Salicylic and Thiosalicylic Acids” (J Pestic Sci, 1996)
Active and inactive are the calls of the source. The calls are words filed in the database; no cut-off is given here.

What was measured:
[1] = tested on: Echinochloa crus-galli; test: Pre-emergence herbicidal activity against Echinochloa crus-galli (barnyard grass) assessed as mortality at 6.3 g a.i/10 a; assay type: functional
[2] = tested on: Ipomoea lacunosa; test: Post-emergence herbicidal activity against Ipomoea lacunosa assessed as mortality at 1.6 g a.i/10 a applied 11 days after germination as foliar spray; assay type: functional; conditions: 264 h
[3] = tested on: Ipomoea lacunosa; test: Post-emergence herbicidal activity against Ipomoea lacunosa assessed as mortality at 6.3 g a.i/10 a applied 11 days after germination as foliar spray; assay type: functional; conditions: 264 h
[4] = tested on: Gossypium hirsutum; test: Pre-emergence phytotoxicity against Gossypium hirsutum (cotton) assessed as mortality at 6.3 g a.i/10 a; assay type: organism-based; conditions: in vivo, other
[5] = tested on: Gossypium hirsutum; test: Pre-emergence phytotoxicity against Gossypium hirsutum (cotton) assessed as mortality at 1.6 g a.i/10 a; assay type: organism-based; conditions: in vivo, other
[6] = (§1) Pre-emergence phytotoxicity against Glycine max (soybean) assessed as mortality at 1.6 g a.i/10 a; assay type: organism-based; conditions: in vivo, 1.6 g a.i/10 a, read-out: Activity
[7] = (§2) Pre-emergence phytotoxicity against Glycine max (soybean) assessed as mortality at 6.3 g a.i/10 a; assay type: organism-based; conditions: in vivo, 6.3 g a.i/10 a, read-out: Activity
[8] = Pre-emergence phytotoxicity against Zea mays (maize) assessed as mortality at 1.6 g a.i/10 a; assay type: organism-based; conditions: in vivo, 1.6 g a.i/10 a
[9] = tested on: Zea mays; test: Pre-emergence phytotoxicity against Zea mays (maize) assessed as mortality at 6.3 g a.i/10 a; assay type: organism-based; conditions: in vivo, other
[10] = tested on: Gossypium hirsutum; test: (§3) Post-emergence phytotoxicity against Gossypium hirsutum (cotton) assessed as mortality at 1.6 g a.i/10 a applied 11 days after germination as foliar spray; assay type: organism-based; conditions: in vivo, other, 264 h
[11] = tested on: Gossypium hirsutum; test: Post-emergence phytotoxicity against Gossypium hirsutum (cotton) assessed as mortality at 6.3 g a.i/10 a applied 11 days after germination as foliar spray; assay type: organism-based; conditions: in vivo, other, 264 h
[12] = tested on: Glycine max; test: Post-emergence phytotoxicity against Glycine max (soybean) assessed as mortality at 6.3 g a.i/10 a applied 11 days after germination as foliar spray; assay type: organism-based; conditions: in vivo, other, 264 h
[13] = tested on: Glycine max; test: (§4) Post-emergence phytotoxicity against Glycine max (soybean) assessed as mortality at 1.6 g a.i/10 a applied 11 days after germination as foliar spray; assay type: organism-based; conditions: in vivo, other, 264 h
[14] = tested on: Zea mays; test: (§5) Post-emergence phytotoxicity against Zea mays (maize) assessed as mortality at 1.6 g a.i/10 a applied 11 days after germination as foliar spray; assay type: organism-based; conditions: in vivo, other, 264 h
[15] = tested on: Zea mays; test: Post-emergence phytotoxicity against Zea mays (maize) assessed as mortality at 6.3 g a.i/10 a applied 11 days after germination as foliar spray; assay type: organism-based; conditions: in vivo, other, 264 h
[16] = tested on: Xanthium strumarium; test: Post-emergence herbicidal activity against Xanthium strumarium (cocklebur) assessed as mortality at 1.6 g a.i/10 a applied 11 days after germination as foliar spray; assay type: functional; conditions: 264 h
[17] = tested on: Echinochloa crus-galli; test: Post-emergence herbicidal activity against Echinochloa crus-galli (barnyard grass) assessed as mortality at 1.6 g a.i/10 a applied 11 days after germination as foliar spray; assay type: functional; conditions: 264 h
[18] = tested on: Echinochloa crus-galli; test: Post-emergence herbicidal activity against Echinochloa crus-galli (barnyard grass) assessed as mortality at 6.3 g a.i/10 a applied 11 days after germination as foliar spray; assay type: functional; conditions: 264 h
[19] = tested on: Xanthium strumarium; test: Pre-emergence herbicidal activity against Xanthium strumarium (cocklebur) assessed as mortality at 1.6 g a.i/10 a; assay type: functional
[20] = tested on: Xanthium strumarium; test: Pre-emergence herbicidal activity against Xanthium strumarium (cocklebur) assessed as mortality at 6.3 g a.i/10 a; assay type: functional
[21] = tested on: Ipomoea lacunosa; test: Pre-emergence herbicidal activity against Ipomoea lacunosa assessed as mortality at 1.6 g a.i/10 a; assay type: functional
[22] = tested on: Ipomoea lacunosa; test: Pre-emergence herbicidal activity against Ipomoea lacunosa assessed as mortality at 6.3 g a.i/10 a; assay type: functional
[23] = tested on: Abutilon theophrasti; test: Pre-emergence herbicidal activity against Abutilon theophrasti (velvetleaf) assessed as mortality at 1.6 g a.i/10 a; assay type: functional
[24] = tested on: Echinochloa crus-galli; test: Pre-emergence herbicidal activity against Echinochloa crus-galli (barnyard grass) assessed as mortality at 1.6 g a.i/10 a; assay type: functional
[25] = tested on: Xanthium strumarium; test: Post-emergence herbicidal activity against Xanthium strumarium (cocklebur) assessed as mortality at 6.3 g a.i/10 a applied 11 days after germination as foliar spray; assay type: functional; conditions: 264 h
[26] = tested on: Abutilon theophrasti; test: Post-emergence herbicidal activity against Abutilon theophrasti (velvetleaf) assessed as mortality at 1.6 g a.i/10 a applied 11 days after germination as foliar spray; assay type: functional; conditions: 264 h
[27] = tested on: Abutilon theophrasti; test: Post-emergence herbicidal activity against Abutilon theophrasti (velvetleaf) assessed as mortality at 6.3 g a.i/10 a applied 11 days after germination as foliar spray; assay type: functional; conditions: 264 h
[28] = tested on: Glycine max; test: as §1; assay type: organism-based; conditions: in vivo, other
[29] = tested on: Glycine max; test: as §2; assay type: organism-based; conditions: in vivo, other
[30] = as §4; assay type: organism-based; conditions: in vivo, 1.6 g a.i/10 a
[31] = as §5; assay type: organism-based; conditions: in vivo, 1.6 g a.i/10 a
[32] = tested on: Cyperus iria; test: Pre-emergence herbicidal activity against Cyperus iria assessed as growth inhibition at 25 g a.i/10 a; assay type: functional, organism-based
[33] = tested on: Chenopodium album; test: Pre-emergence herbicidal activity against Chenopodium album assessed as growth inhibition at 25 g a.i/10 a; assay type: functional, organism-based
[34] = tested on: Amaranthus retroflexus; test: Pre-emergence herbicidal activity against Amaranthus retroflexus assessed as growth inhibition at 25 g a.i/10 a; assay type: functional, organism-based
[35] = tested on: Persicaria nodosa; test: Pre-emergence herbicidal activity against Persicaria nodosa assessed as growth inhibition at 25 g a.i/10 a; assay type: functional, organism-based
[36] = tested on: Digitaria sanguinalis; test: Pre-emergence herbicidal activity against Digitaria sanguinalis (hairy crabgrass) assessed as growth inhibition at 25 g a.i/10 a; assay type: functional, organism-based
[37] = tested on: Echinochloa crus-galli; test: Pre-emergence herbicidal activity against Echinochloa crus-galli (barnyard grass) assessed as growth inhibition at 25 g a.i/10 a; assay type: functional, organism-based
[38] = tested on: Cyperus iria; test: Post-emergence herbicidal activity against Cyperus iria assessed as growth inhibition at 25 g a.i/10 a applied 11 days after germination as foliar spray; assay type: functional, organism-based
[39] = tested on: Chenopodium album; test: Post-emergence herbicidal activity against Chenopodium album assessed as growth inhibition at 25 g a.i/10 a applied 11 days after germination as foliar spray; assay type: functional, organism-based
[40] = tested on: Amaranthus retroflexus; test: Post-emergence herbicidal activity against Amaranthus retroflexus assessed as growth inhibition at 25 g a.i/10 a applied 11 days after germination as foliar spray; assay type: functional, organism-based
[41] = tested on: Persicaria nodosa; test: Post-emergence herbicidal activity against Persicaria nodosa assessed as growth inhibition at 25 g a.i/10 a applied 11 days after germination as foliar spray; assay type: functional, organism-based
[42] = tested on: Digitaria sanguinalis; test: Post-emergence herbicidal activity against Digitaria sanguinalis (hairy crabgrass) assessed as growth inhibition at 25 g a.i/10 a applied 11 days after germination as foliar spray; assay type: functional, organism-based
[43] = tested on: Echinochloa crus-galli; test: Post-emergence herbicidal activity against Echinochloa crus-galli (barnyard grass) assessed as growth inhibition at 25 g a.i/10 a applied 11 days after germination as foliar spray; assay type: functional, organism-based
[44] = as §3; assay type: organism-based; conditions: in vivo, 1.6 g a.i/10 a
[45] = Xanthium strumarium, pre-emergence

Row | Compound | Activity [1] [%] | mortality at 63 g/ha [3] [%] | Activity [4] | Activity [5] | mortality ([8]; read-out: Activity) [%] | Activity [9] [%] | Activity [10] | Activity [11] | Activity [12] | Activity [13] | Activity [14] | Activity [15] | Activity [24] [%] | mortality at 63 g/ha [27] [%] | Activity [28] | Activity [29] | further results
1 | CCCOc1cccc(Sc2nc(OC)cc(OC)n2)c1C(=O)O | <50 | < 5 | Non-toxic | Non-toxic | < 50 | < 50 | Non-toxic | Toxic | Toxic | Non-toxic | Non-toxic | Toxic | <50 |  |  |  | mortality at 16 g/ha [2]: < 5%; mortality [6]: < 50%; mortality [7]: < 50%; mortality at 16 g/ha [16]: < 5%; mortality at 16 g/ha [17]: < 5%; mortality at 63 g/ha [18]: < 5%; Activity [19]: <50%; Activity [20]: <50%; Activity [21]: <50%; Activity [22]: <50%; Activity [23]: <50%
2 | COc1cc(OC)nc(Oc2cccc(C(F)(F)F)c2C(=O)O)n1 |  | > 90 | Non-toxic | Non-toxic |  |  | Toxic | Toxic |  |  |  |  |  | > 90 | Toxic | Toxic | mortality at 63 g/ha [25]: > 90%; mortality at 16 g/ha [26]: > 90%; mortality ([8]; read-out: mortality): > 90%; mortality at 264 h [30]: > 90%; mortality at 264 h [31]: > 90%; growth inhibition (GI) [32]: Active; growth inhibition (GI) [33]: Active; growth inhibition (GI) [34]: Active; growth inhibition (GI) [35]: Active; growth inhibition (GI) [36]: Active; growth inhibition (GI) [37]: Active; growth inhibition (GI) [38]: Active; growth inhibition (GI) [39]: Active; growth inhibition (GI) [40]: Active; growth inhibition (GI) [41]: Active; growth inhibition (GI) [42]: Active; growth inhibition (GI) [43]: Active; mortality at 16 g/ha [19, 45]: < 5%; mortality at 63 g/ha [20, 45]: < 5%; mortality at 16 g/ha ([21]; Ipomoea lacunosa, pre-emergence): < 5%
3 | COc1cc(OC)nc(Sc2cccc(OC)c2C(=O)O)n1 | >90 |  | Non-toxic | Non-toxic | > 90 | > 90 |  | Non-toxic | Toxic | Toxic | Toxic | Toxic | >90 | > 90 | Toxic | Toxic | mortality at 264 h [44]: < 5%
